Assay results as given in PubChem BioAssay AID256 (DTP/NCI, 2004).
Several values for one entry are separate records, joined by “and”; a condition that tells them apart may be missing. Equal entries are not always repeated. Toxic doses and inconclusive results are not listed.

System: CD2F1 mice, L1210 leukemia ip, survival T/C
Test: NCI In Vivo Anticancer Drug Screen. Data for tumor model L1210 Leukemia (intraperitoneal) in CD2F1 (CDF1) mice
Conditions: higher = longer survival
In short: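 In this screen, transplantable tumors were grown in mice given either the compound or its vehicle. Results were expressed as the treated measurement relative to the control measurement.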

[1] = endpoint: mean survival time, dose: 25.0 mg/kg/injection, schedule: Q04DX003 (ip), vehicle: saline with Tween-80
[2] = endpoint: mean survival time, dose: 50.0 mg/kg/injection, schedule: Q04DX003 (ip), vehicle: saline with Tween-80
[3] = endpoint: mean survival time, dose: 100.0 mg/kg/injection, schedule: Q04DX003 (ip), vehicle: saline with Tween-80
[4] = endpoint: mean survival time, dose: 100.0 mg/kg/injection, schedule: Q01DX009 (ip), vehicle: saline with Tween-80
[5] = endpoint: mean survival time, dose: 200.0 mg/kg/injection, schedule: Q01DX009 (ip), vehicle: saline with Tween-80
[6] = endpoint: mean survival time, dose: 200.0 mg/kg/injection, schedule: Q04DX003 (ip), vehicle: saline with Tween-80
[7] = endpoint: mean survival time, dose: 400.0 mg/kg/injection, schedule: Q01DX009 (ip), vehicle: saline with Tween-80
[8] = endpoint: mean survival time, dose: 400.0 mg/kg/injection, schedule: Q04DX003 (ip), vehicle: saline with Tween-80
[9] = endpoint: mean survival time, dose: 12.5 mg/kg/injection, schedule: Q01DX009 (ip), vehicle: saline with Tween-80
[10] = endpoint: mean survival time, dose: 25.0 mg/kg/injection, schedule: Q01DX009 (ip), vehicle: saline with Tween-80
[11] = endpoint: mean survival time, dose: 75.0 mg/kg/injection, schedule: Q01DX001 (ip), vehicle: saline
[12] = endpoint: mean survival time, dose: 150.0 mg/kg/injection, schedule: Q01DX001 (ip), vehicle: saline

O=[N+]([O-])c1cc([N+](=O)[O-])c(Cl)s1
T/C (endpoint: mean survival time, dose: 12.5 mg/kg/injection, schedule: Q04DX003 (ip), vehicle: saline with Tween-80): 92 % of control | T/C [1]: 91 % of control | T/C [2]: 88 % of control

N#C[SH2+].N#C[SH2+].N#C[SH2+].N#C[SH2+].[Cu+2].c1ccc(C[P+](c2ccccc2)(c2ccccc2)c2ccccc2)cc1
T/C (endpoint: mean survival time, dose: 6.0 mg/kg/injection, schedule: Q04DX003 (ip), vehicle: saline): 91 % of control | T/C (endpoint: mean survival time, dose: 12.0 mg/kg/injection, schedule: Q04DX003 (ip), vehicle: saline): 89 % of control | T/C (endpoint: mean survival time, dose: 25.0 mg/kg/injection, schedule: Q04DX003 (ip), vehicle: saline): 96 % of control

CC(=O)N(C(C)=O)c1ncc2ccccc2c1-c1ccc(N)cc1
T/C [1]: 92 % of control | T/C [2]: 89 % of control | T/C [3]: 94 % of control

C=CCNC(=O)OCC
T/C [4]: 100 % of control | T/C [5]: 98 % of control

C[Si](C)(C)Nc1ncnc2c1ncn2[Si](C)(C)C
T/C [4]: 94 % of control | T/C [3]: 103 % of control | T/C [5]: 105 % of control | T/C [6]: 103 % of control | T/C [7]: 106 % of control | T/C [8]: 101 % of control

CN(C)c1ccc(/C=N/NC(=O)CNC(=O)c2ccccc2)cc1
T/C [4]: 95 % of control | T/C [5]: 89 % of control | T/C [7]: 89 % of control

O=C1C=CC(=O)N1CO (tested in a mixture with another compound)
T/C [4]: 98 % of control | T/C [5]: 98 % of control | T/C [7]: 93 % of control

O=CC1C(=O)N(c2ccccc2)c2ccccc21 (centres undefined)
T/C (endpoint: mean survival time, dose: 50.0 mg/kg/injection, schedule: Q04DX003 (ip), vehicle: Klucel (hydroxypropylcellulose) (HPC)): 98 % of control | T/C (endpoint: mean survival time, dose: 100.0 mg/kg/injection, schedule: Q04DX003 (ip), vehicle: Klucel (hydroxypropylcellulose) (HPC)): 106 % of control | T/C (endpoint: mean survival time, dose: 200.0 mg/kg/injection, schedule: Q04DX003 (ip), vehicle: Klucel (hydroxypropylcellulose) (HPC)): 96 % of control

C1CNCCNCCNCCN1
T/C (endpoint: mean survival time, dose: 12.5 mg/kg/injection, schedule: Q01DX009 (ip), vehicle: water): 100 % of control | T/C (endpoint: mean survival time, dose: 25.0 mg/kg/injection, schedule: Q01DX009 (ip), vehicle: water): 100 % of control | T/C (endpoint: mean survival time, dose: 50.0 mg/kg/injection, schedule: Q01DX009 (ip), vehicle: water): 96 % of control | T/C (endpoint: mean survival time, dose: 100.0 mg/kg/injection, schedule: Q01DX009 (ip), vehicle: water): 94 % of control

O=NCC1(Cl)CC2C=CC1C2 (centres undefined)
T/C (endpoint: mean survival time, dose: 6.25 mg/kg/injection, schedule: Q01DX009 (ip), vehicle: saline with Tween-80): 97 % of control | T/C [9]: 98 % of control | T/C [10]: 98 % of control

C1=CCC2C3C=CC(CC3)C2C1 (centres undefined)
T/C [11]: 86 % of control | T/C [12]: 95 % of control | T/C (endpoint: mean survival time, dose: 300.0 mg/kg/injection, schedule: Q01DX001 (ip), vehicle: saline): 97 % of control

CN(C)C(=Nc1ccccc1)N(C)N
T/C [11]: 97 % of control | T/C [12]: 100 % of control

CN1NC2(O)C(=O)N(C3CCCCC3)CC2C1c1ccccc1 (centres undefined)
T/C [3]: 86 % of control | T/C [6]: 93 % of control | T/C [8]: 101 % of control

O=C(Nc1ccc(C2=NCCN2)cc1)c1ccc(C(=O)Nc2ccc(C3=NCCN3)cc2)c(Cl)c1
T/C (endpoint: mean survival time, dose: 0.78 mg/kg/injection, schedule: Q01DX009 (ip), vehicle: saline with Tween-80): 104 % of control | T/C (endpoint: mean survival time, dose: 1.56 mg/kg/injection, schedule: Q01DX009 (ip), vehicle: saline with Tween-80): 104 % of control and 110 % of control and 114 % of control | T/C (endpoint: mean survival time, dose: 2.5 mg/kg/injection, schedule: Q01DX009 (ip), vehicle: saline): 110 % of control | T/C (endpoint: mean survival time, dose: 5.0 mg/kg/injection, schedule: Q01DX009 (ip), vehicle: saline): 110 % of control | T/C (endpoint: mean survival time, dose: 8.0 mg/kg/injection, schedule: Q01DX008 (iv), vehicle: water): 104 % of control | T/C [9]: 203 % of control | T/C (endpoint: mean survival time, dose: 20.0 mg/kg/injection, schedule: Q01DX009 (ip), vehicle: saline): 179 % of control | T/C [10]: 250 % of control | T/C (endpoint: mean survival time, dose: 40.0 mg/kg/injection, schedule: Q01DX009 (ip), vehicle: saline): 234 % of control | T/C (endpoint: mean survival time, dose: 50.0 mg/kg/injection, schedule: Q01DX009 (ip), vehicle: saline with Tween-80): 86 % of control and 92 % of control | T/C (endpoint: median survival time, dose: 10.0 mg/kg/injection, schedule: Q04DX003 (ip), vehicle: saline with Tween-80): 113 % of control | T/C (endpoint: median survival time, dose: 40.0 mg/kg/injection, schedule: Q04DX003 (ip), vehicle: saline with Tween-80): 162 % of control | T/C (endpoint: median survival time, dose: 80.0 mg/kg/injection, schedule: Q04DX003 (ip), vehicle: saline with Tween-80): 228 % of control
